“Also recorded” adds a separate entry of the source.
Tests used:
scn1lab−/− larvae [1] = assay: Non-invasive local field potential (LFP) recordings in zebrafish scn1lab−/− mutant model of Dravet syndrome; format: in vivo, zebrafish (Danio rerio)
Procedure: (§1) FIG. 2. […] (A) Anti-seizure treatment schedule: 3 dpf scn1lab−/− larvae were exposed to the MTC of allicin or VHC control. 2 days later, abnormal locomotor behavior and epileptiform brain activity of treated larvae was analyzed using an automated tracking device (Noldus) and local field potential recordings, respectively. (B) The normalized cumulative duration of activity (%) is represented as mean±SEM. According to the treatment schedule depicted in panel A, anti-seizure effect of allicin was examined in scnLab−/− larvae at 5 dpf (n=22), and compared to VHC treated scnLab−/− larvae (n=24). VHC treated scn1Lab+/+ larvae (n=24) were included as control. (C) The average number of epileptiform events per 10-minute recording is represented as mean±SEM. Treatment schedule depicted in panel A was followed. Accordingly, electrophysiological effect of allicin was examined in scnLab−/− larvae at 5 dpf (n=15), and compared to VHC treated scnLab−/− larvae (n=15). VHC treated scn1Lab+/+ larvae (n=8) were included as control (D) Early treatment schedule: 1 dpf scn1lab−/− larvae were dechorionated and exposed to the MTC of allicin or VHC control. 2 days later, swimming medium of the larvae was replenished with identical concentrations of allicin or VHC, respectively. At 5 dpf, abnormal locomotor behavior and epileptiform brain activity of treated larvae was analyzed using an automated tracking device (Noldus) and local field potential recordings, respectively. (continued on page 6)(continued from page 5) (E) The normalized cumulative duration of activity (%) is represented as mean±SEM. […] At 5 dpf, abnormal locomotor behavior and epileptiform brain activity of treated larvae was analyzed using an automated tracking device (Noldus) and local field potential recordings, respectively. […]
(§2) The mutant larval fish typically develop signs of epilepsy (hyperlocomotor activity, abnormal brain electrical discharges as assessed by Local Field Potential (LFP) measurements) at 4-5 dpf (days post-fertilization). […]

scn1lab−/− larvae [2] = assay: Locomotor activity assessment in zebrafish scn1lab−/− mutant model of Dravet syndrome; format: in vivo, zebrafish (Danio rerio)
Procedure: as §1, §2

SMILES: C=CCS[S@@+]([O-])CC=C (racemic) [allicin, S-(Prop-2-en-1-yl) prop-2-ene-1-sulfinothioate]
- epileptiform brain activity compared to VHC treated controls (scn1lab−/− larvae [1]; anti-seizure treatment schedule: allicin at MTC from 3 dpf onwards (after seizure onset), LFP at 5 dpf (FIG. 2C)): did not demonstrate significant decreases; also recorded: rescue effect is not present
- epileptiform events (scn1lab−/− larvae [1]; early treatment schedule: dechorionated at 1 dpf, exposed to allicin at MTC for 4 days, LFP at 5 dpf (FIG. 2F)): significantly reduced to similar levels as observed in wild-type and heterozygous siblings
- typical symptoms of epilepsy: abnormal brain electrical discharges (scn1lab−/− larvae [1]; exposed during the 0-3 dpf period to non-toxic concentrations, measured at 5 dpf (data not shown)): are not present
- abnormal locomotor behavior (hyperlocomotor activity) compared to VHC treated controls (scn1lab−/− larvae [2]; anti-seizure treatment schedule: allicin at MTC from 3 dpf onwards (after seizure onset), measured at 5 dpf (FIG. 2B)): did not demonstrate significant decreases; also recorded: rescue effect is not present
- abnormal hyperactive behavior compared to VHC controls (scn1lab−/− larvae [2]; early treatment schedule: dechorionated at 1 dpf, exposed to allicin at MTC for 4 days, measured at 5 dpf (FIG. 2E)): highly significant decreases
- typical symptoms of epilepsy: hyperlocomotor activity (scn1lab−/− larvae [2]; exposed during the 0-3 dpf period to non-toxic concentrations, measured at 5 dpf): are not present

Source: US20260232619A1, “TREATMENT OF NEUROLOGICAL DISORDERS WITH ALLICIN AND ANALOGUES THEREOF” (KATHOLIEKE UNIVERSITEIT LEUVEN, priority 2023, published 2026)
